{"source": "patent US20260174749A1", "about": "“COMBINATION THERAPY WITH SUBSTITUTED 3-((3-AMINOPHENYL)AMINO)PIPERIDINE-2,6- DIONE COMPOUNDS” (Bristol-Myers Squibb Company, priority 2022, published 2026)", "format_in_all_cases": "cell-based", "conditions_in_all_cases": "second agent in combination with Compound I, 7 days; for Synergy region (synergy score): Bliss/HSA excess", "key": {"22RV1 cells": {"tested_on": "22RV1 cells", "assay": "CTG proliferation assay, in-vitro combination screen, 22RV1", "parameters": "key to Synergy region (synergy score) / Additivity score / Antagonism score: area between experimental and reference (Bliss/HSA) response surfaces", "protocol": "(§1) Three prostate cancer cell lines LNCAP, VCAP, and 22RV1 were used in this screen. Briefly, LNCaP cells were cultured in RPMI medium supplemented with 10% FBS, 1% penicillin/streptomycin, 10 mM HEPES, 1 mM sodium pyruvate, and 1.5 g/L sodium bicarbonate. […] PC3 cells were cultured in F12K medium supplemented with 10% FBS and 1% penicillin/streptomycin. 22RV1 cells were cultured in RPMI1640 medium supplemented with 10% FBS and 1% penicillin/streptomycin. […] VCaP cells were cultured in DMEM medium supplemented with 10% FBS, 1% penicillin/streptomycin 1 mM sodium pyruvate, 1.5 g/L sodium bicarbonate on high bind treated tissue culture flasks (Corning CellBIND) to increase cell surface attachment. […] The combination plates seeded with cells were then incubated for 7 days at 37° C. and 5% CO2. Cell viability assays were then performed on the plates using Promega CellTiter-Glo (CTG) Luminescent Cell Viability Assay kit and following the manufacturer's protocol. 20 μL of CTG reagent was added to each well of the 384 well plate, and plates were then incubated for 45 minutes before measuring the […] using PerkinElmer EnVision Plate Reader.\n(§2) Synergy is calculated by Bliss and HSA excess scores. Bliss and HSA excess scores are computed by subtracting the area under the experimental response surface to the areas under the corresponding reference model surface. A negative HSA excess score indicates antagonism, while a positive HSA excess indicates additivity and synergy is detected when also the Bliss excess score is positive. Replicates are integrated by fitting individual dose response curves. Statistical analysis is performed by first estimating experimental noise and goodness-of-fit values for each individual combination. These values are used to compute Z-scores for the observed effects. Z-scores are integrated across the combination matrix where the deviation from the model is consistent over adjacent doses and a p-value is computed."}, "VCaP cells": {"tested_on": "VCaP cells", "assay": "CTG proliferation assay, in-vitro combination screen, VCaP", "parameters": "key to Synergy excess / Additivity score: area between experimental and reference (Bliss/HSA) response surfaces", "protocol": "as §1, §2"}, "LNCaP cells": {"tested_on": "LNCaP cells", "assay": "CTG proliferation assay, in-vitro combination screen, LNCaP", "parameters": "key to Synergy excess: experimental response-surface area minus reference-model area (Bliss/HSA); Maximum synergy: scale not given here", "protocol": "Three prostate cancer cell lines LNCAP, VCAP, and 22RV1 were used in this screen. Briefly, LNCaP cells were cultured in RPMI medium supplemented with 10% FBS, 1% penicillin/streptomycin, 10 mM HEPES, 1 mM sodium pyruvate, and 1.5 g/L sodium bicarbonate. LNCaP cells were seeded at a density of 2000 cells/well on 384 black assay plates printed with our different compound combinations of interest printed on the plates. PC3 cells were cultured in F12K medium supplemented with 10% FBS and 1% penicillin/streptomycin. 22RV1 cells were cultured in RPMI1640 medium supplemented with 10% FBS and 1% penicillin/streptomycin. 22RV1 cells were seeded at a density of 2000 cells/well on 384 black assay plates printed with our different compound combinations of interest printed on the plates. VCaP cells were cultured in DMEM medium supplemented with 10% FBS, 1% penicillin/streptomycin 1 mM sodium pyruvate, 1.5 g/L sodium bicarbonate on high bind treated tissue culture flasks (Corning CellBIND) to increase cell surface attachment. VCaP cells were seeded at a density of 3000 cells/well on high-bind 384 black assay plates printed with our different compound combinations of interest printed on the plates. The combination plates seeded with cells were then incubated for 7 days at 37° C. and 5% CO2. Cell viability assays were then performed on the plates using Promega CellTiter-Glo (CTG) Luminescent Cell Viability Assay kit and following the manufacturer's protocol. 20 μL of CTG reagent was added to each well of the 384 well plate, and plates were then incubated for 45 minutes before measuring the […] using PerkinElmer EnVision Plate Reader.\nas §2"}}, "data": [{"smiles": "CNC(=O)c1cc(Oc2ccc(NC(=O)Nc3ccc(Cl)c(C(F)(F)F)c3)cc2)ccn1", "note": "[Sorafenib, sorafenib]", "values": [{"measurement": "Additivity score", "setting": "22RV1 cells", "value": 2.6}, {"measurement": "Antagonism score", "setting": "22RV1 cells", "value": 0}, {"measurement": "Maximum synergy", "setting": "22RV1 cells", "value": 20}, {"measurement": "Synergy region (synergy score)", "setting": "22RV1 cells", "value": 0.65}]}, {"smiles": "N#CC[C@H](C1CCCC1)n1cc(-c2ncnc3[nH]ccc23)cn1", "note": "[Ruxolitinib, ruxolitinib]", "values": [{"measurement": "Additivity score", "setting": "VCaP cells", "value": 5.2}, {"measurement": "Antagonism score", "setting": "VCaP cells", "value": 0}]}, {"smiles": "CCN(c1cc(-c2ccc(CN3CCOCC3)cc2)cc(C(=O)NCc2c(C)cc(C)[nH]c2=O)c1C)C1CCOCC1", "note": "[Tazemetostat, tazemetostat]", "values": [{"measurement": "Additivity score", "setting": "LNCaP cells", "value": 6.1}, {"measurement": "Antagonism score", "setting": "LNCaP cells", "value": 0}, {"measurement": "Maximum synergy", "setting": "LNCaP cells", "value": 20}, {"measurement": "Synergy excess", "setting": "LNCaP cells", "value": 5.3}, {"measurement": "Synergy region (synergy score)", "setting": "LNCaP cells", "value": 4.1}]}, {"smiles": "CC(C)NC[C@@H](C(=O)N1CCN(c2ncnc3c2[C@H](C)C[C@H]3O)CC1)c1ccc(Cl)cc1", "note": "[GDC-0068, ipatasertib]", "values": [{"measurement": "Additivity score", "setting": "LNCaP cells", "value": 13}, {"measurement": "Antagonism score", "setting": "LNCaP cells", "value": 0}, {"measurement": "Maximum synergy", "setting": "LNCaP cells", "value": 23}, {"measurement": "Synergy excess", "setting": "LNCaP cells", "value": 7.6}, {"measurement": "Synergy region (synergy score)", "setting": "LNCaP cells", "value": 5.6}, {"measurement": "Additivity score", "setting": "VCaP cells", "value": 7.5}, {"measurement": "Antagonism score", "setting": "VCaP cells", "value": 0}, {"measurement": "Maximum synergy", "setting": "VCaP cells", "value": 14}, {"measurement": "Synergy excess", "setting": "VCaP cells", "value": 3.8}, {"measurement": "Synergy region (synergy score)", "setting": "VCaP cells", "value": 1.5}, {"measurement": "Additivity score", "setting": "22RV1 cells", "value": 7.5}, {"measurement": "Antagonism score", "setting": "22RV1 cells", "value": 0}, {"measurement": "Maximum synergy", "setting": "22RV1 cells", "value": 23}, {"measurement": "Synergy excess", "setting": "22RV1 cells", "value": 2.4}, {"measurement": "Synergy region (synergy score)", "setting": "22RV1 cells", "value": 2.1}]}, {"smiles": "C[C@@H](Nc1cc(F)cc(F)c1)c1cc(C(=O)N(C)C)cc2c(=O)cc(N3CCOCC3)oc12", "note": "[AZD8186]", "values": [{"measurement": "Additivity score", "setting": "LNCaP cells", "value": 10}, {"measurement": "Antagonism score", "setting": "LNCaP cells", "value": 0}, {"measurement": "Maximum synergy", "setting": "LNCaP cells", "value": 12}, {"measurement": "Synergy excess", "setting": "LNCaP cells", "value": 4.4}, {"measurement": "Synergy region (synergy score)", "setting": "LNCaP cells", "value": 1.5}, {"measurement": "Additivity score", "setting": "VCaP cells", "value": 2.1}, {"measurement": "Antagonism score", "setting": "VCaP cells", "value": 0}, {"measurement": "Maximum synergy", "setting": "VCaP cells", "value": 11}, {"measurement": "Synergy excess", "setting": "VCaP cells", "value": 2.9}, {"measurement": "Synergy region (synergy score)", "setting": "VCaP cells", "value": 0.39}, {"measurement": "Additivity score", "setting": "22RV1 cells", "value": 7.6}, {"measurement": "Antagonism score", "setting": "22RV1 cells", "value": 0}, {"measurement": "Maximum synergy", "setting": "22RV1 cells", "value": 24}, {"measurement": "Synergy excess", "setting": "22RV1 cells", "value": 2.4}, {"measurement": "Synergy region (synergy score)", "setting": "22RV1 cells", "value": 1.6}]}, {"smiles": "NC1(C(=O)N[C@@H](CCO)c2ccc(Cl)cc2)CCN(c2nc[nH]c3nccc2-3)CC1", "note": "[AZD5363, capivasertib]", "values": [{"measurement": "Additivity score", "setting": "LNCaP cells", "value": 16}, {"measurement": "Antagonism score", "setting": "LNCaP cells", "value": 0}, {"measurement": "Maximum synergy", "setting": "LNCaP cells", "value": 26}, {"measurement": "Synergy excess", "setting": "LNCaP cells", "value": 9.4}, {"measurement": "Synergy region (synergy score)", "setting": "LNCaP cells", "value": 8.1}, {"measurement": "Additivity score", "setting": "VCaP cells", "value": 7.1}, {"measurement": "Antagonism score", "setting": "VCaP cells", "value": 0}, {"measurement": "Maximum synergy", "setting": "VCaP cells", "value": 13}, {"measurement": "Synergy excess", "setting": "VCaP cells", "value": 6.2}, {"measurement": "Synergy region (synergy score)", "setting": "VCaP cells", "value": 2}]}]}
